Reference: patent US7745644B2, “Antibiotic compounds” (Merck Sharp & Dohme Corp., priority 2003, dated 2010)
Values after ≈ are worked out from the molar mass of the structure shown.

Key:
S. aureus = assay: Microbroth dilution MIC assay; type: cell-based, Staphylococcus aureus
Method: (§1) The strains used are isolates from either the Merck Culture Collection, the Merck Clinical Culture Collection or from Clinical Trials. The strain of Haemophilus influenzae is a mouse pathogen used for in vivo testing at Merck. The Escherichia coli strain is a cell wall permeable strain. The Candida albicans strain is used as a control. These culture are maintained as frozen stocks at −80° C. in a.) Microbank beads; b.) 2× Skim Milk; or c.) in 2× Trypticase Soy Broth+15% glycerol/50% horse serum (Haemophilus and Streptococcus pneumoniae).
(§2) Selected isolates are subcultured onto either Chocolate Agar Plates (Haemophilus influenzae), onto Trypticase Soy+5% Sheep Blood Agar Plates (Streptococcus pneumoniae, Staphylococcus aureus, Escherichia coli, Enterococcus, Bacillus) or onto Sabouraud Dextrose Agar (Candida) and incubated at 35° C. Haemophilus and Streptococcus pneumoniae are incubated in 5% CO2; all other isolates are incubated in ambient air. Isolates are subcultured 2× before assay.
(§3) Colonies are selected from plates and used to prepare an inoculum equivalent to a 0.5 McFarland standard in Trypticase Soy Broth. An inoculum with a density equivalent to a 1.0 McFarland standard is prepared for Streptococcus pneumoniae. The inoculum density for all cultures is −10^8 CFU/mL in TSB. This TSB inoculum is diluted 1:10 in sterile saline (4 mL inoculum+36 mL saline; equivalent to −10^7 CFU/mL) and kept on ice until used to inoculate microtiter plates.
All wells of 96-well microtiter plates (Dynex) are filled with 100 TL media. Haemophilus test media plates are prepared to test Haemophilus influenzae; Cation-Adjusted Mueller Hinton+5% Lysed Horse Blood plates are prepared to test Streptococcus pneumoniae; Cation-Adjusted Mueller Hinton Broth plates are prepared to test Enterococcus, Staphylococcus aureus, Escherichia coli and Bacillus subtilis. RPMI 1640 is used to test Candida The MICs against S. aureus Smith are determined in Cation-adjusted Mueller Hinton and in Cation-Adjusted Mueller Hinton+50% Human Serum to determine if the compound is inactivated by some component in serum (indicated by an increase in the MIC). Filled plates are wrapped in plastic bags (to minimize evaporation), stored frozen and thawed before use.
The compounds are prepared on a weight basis. Compounds are prepared to 2 mg/mL in 100% DMSO, then diluted to 1 mg/mL in a 1:1 dilution of DMSO/2×CAMHB (final concentration=50% DMSO/50% CAMHB). […]
(§4) All wells of microtiter plates are inoculated with (saline-diluted) culture using the MIC 2000 System, an automated plate inoculating device which delivers an inoculum of 1.5 TL per well. […] Results are recorded after 22-24-hours' incubation. Plates were read to no growth.

E. faecalis = assay: Microbroth dilution MIC assay; type: cell-based, Enterococcus faecalis; conditions: various strains of E. faecalis
Method: as §1, §2
(§5) Colonies are selected from plates and used to prepare an inoculum equivalent to a 0.5 McFarland standard in Trypticase Soy Broth. […]
as §4

E. faecium = assay: Microbroth dilution MIC assay; type: cell-based, Enterococcus faecium
Method: as §1, §2, §3
All wells of 96-well microtiter plates (Dynex) are filled with 100 TL media. […]
as §4

B. subtilis = assay: Microbroth dilution MIC assay; type: cell-based, Bacillus subtilis; conditions: various strains of B. subtilis
Method: as §1, §2, §5, §4

S. pneumoniae = assay: Microbroth dilution MIC assay; type: cell-based, Streptococcus pneumoniae; conditions: various strains of S. pneumoniae
Method: as §1, §2, §5, §4

E. coli = assay: Microbroth dilution MIC assay; type: cell-based, Escherichia coli; conditions: various strains of E. coli; cell wall permeable strain
Method: as §1, §2, §5, §4

S. epidermidis = assay: Microbroth dilution MIC assay; type: cell-based, Staphylococcus epidermidis; conditions: macrolide-resistant S. epidermidis
[1] = test system: vancomycin-resistant Enterococcus sp. (VRE); assay: Microbroth dilution MIC assay; type: cell-based
Method: as §1, §2, §5, §4

[2] = Microbroth dilution MIC assay, all test strains pooled; type: cell-based; conditions: range over all test strains, including resistant ones; NCCLS guidelines; read-out: minimum inhibitory concentration (MIC)
Method: as §1, §2, §5, §4

Q: What does the source list for C[C@@]12C[C@]34C=CC(=O)[C@](C)(CCC(=O)Nc5c(O)ccc(C(=O)O)c5O)C3[C@@H](CC1C4)O2 (some centres unmarked) [Compound I]?
A: antibacterial activity (S. aureus; linezolid-resistant S. aureus): demonstrates antibacterial activity; antibacterial activity (S. aureus; macrolide-resistant S. aureus): demonstrates antibacterial activity; antibacterial activity (S. aureus; methicillin-resistant S. aureus (MRSA)): demonstrates antibacterial activity; antibacterial activity (S. aureus; various strains of S. aureus): demonstrates antibacterial activity; antibacterial activity (E. faecalis): demonstrates antibacterial activity; antibacterial activity (E. faecium; linezolid-resistant E. faecium): demonstrates antibacterial activity; antibacterial activity (E. faecium; multidrug-resistant E. faecium): demonstrates antibacterial activity; antibacterial activity (E. faecium; various strains of E. faecium): demonstrates antibacterial activity; antibacterial activity (B. subtilis): demonstrates antibacterial activity; antibacterial activity (S. pneumoniae): demonstrates antibacterial activity; antibacterial activity (E. coli): demonstrates antibacterial activity; antibacterial activity (S. epidermidis): demonstrates antibacterial activity; antibacterial activity [1]: demonstrates antibacterial activity; MIC [2]: 0.1 to 32 µg/mL (≈ 0.227 to 72.5 µM)
